Assay results as given in patent US20200094031A1, “TREATMENT OF A DISEASE OF THE GASTROINTESTINAL TRACT WITH A CHST15 INHIBITOR” (Progenity, Inc., priority 2017, published 2020).
Like-named read-outs stand apart in the source and are kept apart here.

How the values were obtained:
[1] = Tissue, plasma, rectal sample and GI content pharmacokinetics of tacrolimus, oral vs intra-cecal ingestible device (Example 10); set-up: species or system Yorkshire-Cross farm swine; details: in vivo
Method: The primary objective of this study was to compare the tissue, plasma, rectal sample, and GI content pharmacokinetics of tacrolimus through oral versus intra-cecal ingestible device delivery in normal Yorkshire-Cross farm swine.
(§1) No further randomization procedure was employed.
Animals in Group 1 received an ingestible device containing 0.8 mL of vehicle solution (80% alcohol, 20% HCO-60). Animals in Group 2 received orally […] liquid formulation of tacrolimus at 4 mg/0.8 mL per animal (Prograf: 5 mg/mL). Animals in Group 3 received intra-cecally an ingestible device containing tacrolimus at 1 mg in 0.8 mL per ingestible device. Animals in Group 4 received intra-cecally an ingestible device containing tacrolimus at 2 mg in 0.8 mL per ingestible device. Animals in Group 5 received intra-cecally an ingestible device containing tacrolimus at 4 mg in 0.8 mL per ingestible device. To control for potential confounding effects of the surgery, all groups fast on Day −11 at least 24 hr before being subjected to anesthesia followed by surgical placements of a cecal port by a veterinary surgeon at Day −10. All animals were fasted for at least 12 hr prior to dosing on Day 1. Animals were dosed via either intra-cecal dosing (IC) or oral dosing (PO) at Day 1 (between 6-8 p.m.). All animals resumed feeding at approximately 4 hours after dose (11-12 p.m. after dosing).
Animals in Group 1 (Vehicle Control) were administered a single intra-cecal ingestible device containing 0.8 mL Vehicle solution (80% alcohol, 20% castor oil (HCO-60) on Day 1. On Day −10 the animals were anesthetized, and a veterinary surgeon surgically placed an intra-cecal port in each animal. On Day 1, each animal was placed into a sling then a single intra-cecal ingestible device containing 0.8 mL vehicle solution (80% alcohol, 20% castor oil (HCO-60)) is introduced by the veterinary surgeon into the cecum via the cecal port in each animal. Following ingestible device placement, the animals were removed from the slings and placed back into their pens with water. All animals resumed feeding at approximately 4 hours after dose. […] A total of 60 samples were collected.
Approximately 200˜400 mg of rectal content were collected, if available, with a fecal swab (Copan Diagnostics Nylon Flocked Dry Swabs, 502CS01). The fecal swab was pre-weighed and weighed after collection in the collection tube (Sterile Tube and Cap No Media, PFPM913S), and the sample weight was recorded. The fecal swab was broken via the breakpoint, and was stored in the collection tube, and immediately frozen at −70° C. […] Immediately following euthanasia, tissue was collected.
For tissue necropsy, small intestine fluid and cecal fluid were collected separately from all the animals into two separate square plastic bottles, and stored at −20° C. The length and diameter of the cecum and the colon was measured from one animal in each group and recorded for reference. Tissues were collected for pharmacokinetic analyses and include mesenteric lymph nodes, a Peyer's Patch, and five gastrointestinal sections, including cecum, proximal colon, transverse colon, distal colon, and rectum. All samples were weighed, and the tissue sample weights were recorded. In each of the five gastrointestinal sections, tissue samples were collected in three different areas where the mucosal surface was visible and not covered by luminal content by using an 8.0-mm punch biopsy tool. Around 3 grams of the total punched sample were collected into a pre-weighed 15-mL conical tube, and the tissue weight was recorded. Three mesenteric lymph nodes were collected from different areas and weighed. At least one Peyer's Patch was collected and weighed.
Luminal contents were collected for pharmacokinetic analyses from the surface of the tissue from each of five gastrointestinal sections: cecum, proximal colon, transverse colon, distal colon, and rectum (total of 75). […]

[2] = Blood pharmacokinetics of oral vs intra-cecal tacrolimus (Example 13); set-up: species or system Yorkshire-Cross farm swine; details: in vivo; for concentration at 12 hr: Trough (12 hr)
Source text: as §1

[3] = Tacrolimus concentration in gastrointestinal tissue, luminal content and rectal contents, and tissue/plasma ratios (Example 13); format: in vivo, Yorkshire-Cross farm swine; details: female, Yorkshire-Cross, pig; for concentration at 12 hr: other: intra-cecal device; for concentration at 12 hr / concentration at 12 h: 12 hr post dose
Method: The primary objective of this study was to study the pharmacokinetics of oral versus intra-cecal administration of tacrolimus in normal Yorkshire-Cross farm swine.
This study compares the effects of administration of: a single intra-cecal administration of a device containing 0.8 mL sterile vehicle solution (80% alcohol, 20% castor oil (HCO-60)); a single oral dose of tacrolimus at 0.09 mg/kg (in sterile vehicle solution); and a single intra-cecal administration of a device containing either 0.02 mg/kg (in sterile vehicle solution), 0.04 mg/kg (in sterile vehicle solution), or 0.09 mg/kg (in sterile vehicle solution).
This study employed five groups of three female swine weighing approximately 45 to 50 kg at study start. Swine were randomly placed into animal rooms/pens as they are transferred from the delivery vehicle without regard to group. Group numbers were assigned to the rooms in order of room number. No further randomization procedure was employed.
Animals in Group 1 received intra-cecally a device containing a vehicle solution (80% alcohol, 20% HCO-60). Animals in Group 2 received orally a liquid formulation of tacrolimus at 0.09 mg/kg per animal. Animals in Group 3 received intra-cecally a device containing tacrolimus at 0.02 mg/kg per device. Animals in Group 4 received intra-cecally a device containing tacrolimus 0.04 mg/kg per device. Animals in Group 5 received intra-cecally a device containing tacrolimus 0.09 mg/kg per device.

[4] = female, Yorkshire-Cross, pig, 0.02 mg/kg
[5] = female, Yorkshire-Cross, pig, 0.04 mg/kg
[6] = female, Yorkshire-Cross, pig, 0.09 mg/kg

With `C=CC[C@@H]1/C=C(\C)C[C@H](C)C[C@H](OC)[C@H]2O[C@@](O)(C(=O)C(=O)N3CCCC[C@H]3C(=O)O[C@H](/C(C)=C/[C@@H]3CC[C@@H](O)[C@H](OC)C3)[C@H](C)[C@@H](O)CC1=O)[C@H](C)C[C@@H]2OC` [tacrolimus] the “exposure AUC” value [1] was < 2000-12 ng·h/mL, the “luminal content (spiral, transverse, and distal colon) concentrations” value [1] was “Significantly higher” and the “mean concentration of tacrolimus in the cecum tissue and the proximate colon tissue” value [1] was “higher”. For the same molecule, the “tissue (spiral and transverse colon) concentrations” value [1] was “Significantly higher”, the “level of tacrolimus in tissue” value ([1]; po) was “No measurable level” and the rectal content concentration ([1]; po) was “no detectable level”. The AUC(0-t) [2, 4] was 15.3 ± 2.36 ng·h/mL, the Cmax [2, 4] was 2.39 ± 0.57 ng/mL and the concentration at 12 hr [2, 4] was 0.746 ± 0.038 ng/mL. It also gave an AUC(0-t) [2, 5] of 51.4 ± 4.04 ng·h/mL, a Cmax [2, 5] of 9.2 ± 3.3 ng/mL and a concentration at 12 hr [2, 5] of 1.96 ± 0.491 ng/mL. For the same molecule, the AUC(0-t) [2, 6] was 130 ± 7.83 ng·h/mL, the Cmax [2, 6] was 21.8 ± 4.73 ng/mL and the concentration at 12 hr [2, 6] was 4.35 ± 0.561 ng/mL. For the same molecule, the concentration at 12 hr ([2]; female, Yorkshire-Cross, pig, po, 0.09 mg/kg) was 0.568 ± 0.291 ng/mL, the concentration at 12 h ([2]; female, Yorkshire-Cross, pig, po, 0.09 mg/kg, Trough level (12 hr)) was 0.568 ng/mL and the “mean concentration and AUC0-12 hours of tacrolimus in the blood” value ([2]; po, 0.09 mg/kg) was “higher”. It also gave a Kp at 12 h ([3]; cecum tissue, other: intra-cecal, 0.04 mg/kg, cecum, Group 4 IC (0.04 mg/kg), swine, read-out: Ratio Tissue (mean) (ng/g)/Trough(12 hr) (ng/ml)) of 26.7, a Kp at 12 h ([3]; cecum tissue, other: intra-cecal, 0.09 mg/kg, cecum, Group 5 IC (0.09 mg/kg), swine, read-out: Ratio Tissue (mean) (ng/g)/Trough(12 hr) (ng/ml)) of 17.8 and a Kp at 12 h ([3]; distal colon tissue, other: intra-cecal, 0.02 mg/kg, distal colon, Group 3 IC (0.02 mg/kg), swine, read-out: Ratio Tissue (mean) (ng/g)/Trough(12 hr) (ng/ml)) of 59.9. For the same molecule, the Kp at 12 h ([3]; distal colon tissue, other: intra-cecal, 0.04 mg/kg, distal colon, Group 4 IC (0.04 mg/kg), swine, read-out: Ratio Tissue (mean) (ng/g)/Trough(12 hr) (ng/ml)) was 14.6, the Kp at 12 h ([3]; distal colon tissue, other: intra-cecal, 0.09 mg/kg, distal colon, Group 5 IC (0.09 mg/kg), swine, read-out: Ratio Tissue (mean) (ng/g)/Trough(12 hr) (ng/ml)) was 15.6 and the “Ratio Tissue (mean) (ng/g)/AUG(0-12 hr) (ng · hr/ml)” value ([3]; in vivo, po, 0.09 mg/kg, 12 h) was 0. The “Ratio Tissue (mean) (ng/g)/Trough(12 hr) (ng/ml)” value ([3]; in vivo, po, 0.09 mg/kg, 12 h) was 0, the Kp at 12 h ([3]; in vivo, po, 0.09 mg/kg, Ratio Tissue (mean) (ng/g)/AUG(0-12 hr) (ng · hr/ml)) was 0 and the Kp at 12 h ([3]; in vivo, po, 0.09 mg/kg, Ratio Tissue (mean) (ng/g)/Trough(12 hr) (ng/ml)) was 0. For the same molecule, the concentration at 12 hr ([3]; distal colon tissue, Group 3 IC (0.02 mg/kg), swine) was 44.7 ng/g, the concentration at 12 hr ([3]; proximal colon tissue, Group 3 IC (0.02 mg/kg), swine) was 50.2 ng/g and the concentration at 12 hr ([3]; spiral colon tissue, Group 3 IC (0.02 mg/kg), swine) was 204 ng/g. The concentration at 12 hr ([3]; spiral colon tissue, Group 4 IC (0.04 mg/kg), swine) was 342 ng/g, the concentration at 12 hr ([3]; spiral colon tissue, Group 5 IC (0.09 mg/kg), swine) was 783 ng/g and the concentration at 12 hr ([3]; transverse colon tissue, Group 3 IC (0.02 mg/kg), swine) was 128 ng/g. The concentration at 12 hr ([3]; transverse colon tissue, Group 4 IC (0.04 mg/kg), swine) was 85.8 ng/g, the concentration at 12 hr ([3]; transverse colon tissue, Group 5 IC (0.09 mg/kg), swine) was 272 ng/g and the concentration at 12 h ([3]; other: intra-cecal, cecum tissue, Group 4 IC (0.04 mg/kg), swine) was 52.3 ng/g. For the same molecule, the concentration at 12 h ([3]; other: intra-cecal, cecum tissue, Group 5 IC (0.09 mg/kg), swine) was 77.3 ng/g, the concentration at 12 h ([3]; other: intra-cecal, distal colon tissue, Group 4 IC (0.04 mg/kg), swine) was 28.7 ng/g and the concentration at 12 h ([3]; other: intra-cecal, distal colon tissue, Group 5 IC (0.09 mg/kg), swine) was 67.7 ng/g. For the same molecule, the concentration at 12 h ([3]; other: intra-cecal, proximal colon tissue, Group 4 IC (0.04 mg/kg), swine) was 98.3 ng/g, the concentration at 12 h ([3]; other: intra-cecal, proximal colon tissue, Group 5 IC (0.09 mg/kg), swine) was 157 ng/g and the Kp at 12 h ([3]; proximal colon tissue, other: intra-cecal, 0.02 mg/kg, proximal colon, Group 3 IC (0.02 mg/kg), swine, read-out: Ratio Tissue (mean) (ng/g)/Trough(12 hr) (ng/ml)) was 67.3. For the same molecule, the Kp at 12 h ([3]; proximal colon tissue, other: intra-cecal, 0.04 mg/kg, proximal colon, Group 4 IC (0.04 mg/kg), swine, read-out: Ratio Tissue (mean) (ng/g)/Trough(12 hr) (ng/ml)) was 50.1, the Kp at 12 h ([3]; proximal colon tissue, other: intra-cecal, 0.09 mg/kg, proximal colon, Group 5 IC (0.09 mg/kg), swine, read-out: Ratio Tissue (mean) (ng/g)/Trough(12 hr) (ng/ml)) was 36.1 and the Kp at 12 h ([3]; spiral colon tissue, other: intra-cecal, 0.02 mg/kg, spiral colon, Group 3 IC (0.02 mg/kg), swine, read-out: Ratio Tissue (mean) (ng/g)/Trough(12 hr) (ng/ml)) was 273. The Kp at 12 h ([3]; spiral colon tissue, other: intra-cecal, 0.04 mg/kg, spiral colon, Group 4 IC (0.04 mg/kg), swine, read-out: Ratio Tissue (mean) (ng/g)/Trough(12 hr) (ng/ml)) was 175, the Kp at 12 h ([3]; spiral colon tissue, other: intra-cecal, 0.09 mg/kg, spiral colon, Group 5 IC (0.09 mg/kg), swine, read-out: Ratio Tissue (mean) (ng/g)/Trough(12 hr) (ng/ml)) was 180 and the Kp at 12 h ([3]; transverse colon tissue, other: intra-cecal, 0.02 mg/kg, transverse colon, Group 3 IC (0.02 mg/kg), swine, read-out: Ratio Tissue (mean) (ng/g)/Trough(12 hr) (ng/ml)) was 172. For the same molecule, the Kp at 12 h ([3]; transverse colon tissue, other: intra-cecal, 0.04 mg/kg, transverse colon, Group 4 IC (0.04 mg/kg), swine, read-out: Ratio Tissue (mean) (ng/g)/Trough(12 hr) (ng/ml)) was 43.8 and the Kp at 12 h ([3]; transverse colon tissue, other: intra-cecal, 0.09 mg/kg, transverse colon, Group 5 IC (0.09 mg/kg), swine, read-out: Ratio Tissue (mean) (ng/g)/Trough(12 hr) (ng/ml)) was 62.5.
